# Patent US10131671B2, “Organic compounds” (Intra-Cellular Therapies, Inc., priority 2014, dated 2018)
# Key:
# [1] = Pharmacokinetic analysis in mice: plasma and brain levels after oral dose; assay type: in vivo, C57BL/6 mice; settings: male, C57BL/6, mouse, 10 mg/kg, 10 mg/kg PO, Brain AUC(0-2h)/Plasma AUC(0-2h) or Brain Cmax/Plasma Cmax, read-out: ratio of brain/plasma concentration (B/P)
# Experimental: Animals: Male, C57BL/6 mice (Jackson Labs, 25-30 g in body weight) are provided by Jackson Laboratories. Up to five mice are housed per cage and are maintained under a 12 hour light/dark cycle with access to food and water ad libitum. All procedures for the handling and use of animals follow the guidelines of the Institutional Animal Care and Use Committee (IACUC) of Columbia University, in accordance with NIH guidelines. Eight week-old mice (N=3/dose level or treatment group) are used in the experiments.
# Experimental Treatment: Compounds: Selected Compounds of the Invention are evaluated in the present study. Formulation/Vehicle: 3% 1N HCl, 5% Labrasol and 92% of 5% TPGS in 0.05M Citrate buffer (CB, pH 4.0). The test compound(s) are prepared as solution in vehicle and are dosed in a volume of 8 ml/kg.
# Compound Preparation: Powdered stocks of the test compound(s) are measured and dissolved in 3% 1N HCl, 5% Labrasol and 92% of 5% TPGS in 0.05M Citrate buffer (CB, pH 4.0). Two or three layers of 3 mm glass beads are added to the bottom of the 10 ml glass tube to promote mixing. […]
# Treatment of Animals: Mice (N=3 mice/dose/time point) receive a 10 mg/kg oral (PO) dose of the test compound(s) at time 0. […] Plasma and brain tissue samples are processed and analyzed by the analytical group using LC-MS/MS methods, as described below. […]
# Each tube is vortexed, then centrifuged for 20 min at 15000 rpm using a Tomy benchtop centrifuge at 4° C. Standard is an internal standard used for LC-MS/MS quantitation. […]
# HPLC and Mass Spectrometric Analysis: Analysis to quantify the concentration of each compound in plasma and brain homogenate is carried out using reverse phase HPLC followed by mass spectrometric detection using the parameters listed:
# Each compound is detected and quantified using Multiple Reaction Monitoring (MRM) of positive electrospray mode with a Waters QuattroMicro™ mass spectrometry system.
# RESULTS: Plasma and Brain Analysis: All the test compound(s) tested could be detected and analyzed when spiked into control plasma. […]
# [2] = tested on: TAC-induced hypertrophy; assay: Transverse aortic constriction (TAC) mouse model of cardiac hypertrophy; assay type: in vivo, C59Bl/6 mice; settings: for Terminal LV + S/TL Ratio (mean) (TAC ratio): day 1-28 post-surgery, left ventricle+septum weight/tibia length
# Experimental: Animals: C59Bl/6 mice, 20-40 grams, Charles River (Portage, Mich.).
# Test Compound of Example 2: Test compound of Example 2 is formulated. The test article dosing solutions are prepared by titrating the free base with 1 mole/mole dilute (0.02N) HCl and diluting the dissolved test compound in the vehicle (0.5% methylcellulose in distilled water) to a final concentration of 0.45 mg/mL and 1.5 mg/mL dosing solution. A supply of formulation for thirty days of dosing are prepared (day 1-6 for 1st surgical cohort).
# Reference Test Compound—Losartan potassium: Losartan is obtained by CorDynamics, and prepared on the day of administration by dissolving in the vehicle (0.5% methylcellulose in distilled water) at concentration of 4.5 mg/mL dosing solution. The compound is agitated with a vortex mixer and sonicated to ensure the compound is in solution.
# Transverse Aortic Constriction Surgery: Animals are anesthetized with isoflurane using a nose cone connected to a vaporizer that delivers 1-2% isoflurane driven by 100% oxygen. After initial anesthesia with isoflurane, mice receive 1 mg/kg Buprenex SR (1 mg/mL, s.c.) and 10 mg/kg of etomidate (2 mg/mL, i.p.). Animals are intubated for mechanical ventilation. The endotracheal tube is connected to a mechanical ventilator that provides positive-pressure ventilation with 1-2% isoflurane remainder oxygen, set to maintain ˜120 breaths/min with a tidal volume of ˜200 μL. Body temperature is monitored throughout the experiment.
# A sternotomy is performed from the manubrium through the second or third rib in order to expose the aorta in the thoracic cavity. The aorta is cleaned of surrounding tissue and the transverse aorta clamped with a titanium microclip, the diameter similar to a 27 G needle. The transverse aorta from mice in Group 1 is cleaned of surrounding tissue but not clamped. The incision is closed, endotracheal tube is removed and animal is allowed to recover.
# Mice are dosed twice daily with vehicle or the compound of Example 2 via oral administration with approximately 6 hours between each dose beginning at 1 day post-surgery. Mice are dosed once daily with losartan via oral administration. Body weights are taken after arrival, prior to surgery, prior to dosing on the first day of dosing and every third day of dosing for dose calculation purposes.
# On day 28, echocardiographic measurements are performed for all experimental groups. Animals are anesthetized with isoflurane using a nose cone connected to a vaporizer that delivers 1-2% isoflurane driven by 100% oxygen. Mice are placed in the dorsal decubitus position on a warming platform to maintain body temperature at 37±0.5° C. Heart rate is monitored throughout the experiment. Transthoracic two-dimensional, B-mode, M-mode and pulsed Doppler images are acquired with a high-resolution echocardiographic system (VeVo 770, Visual Sonics, Toronto, ON, Canada) equipped with a 30-MHz mechanical transducer.
# After echocardiographic measurements, animals are euthanized via CO2 asphyxiation. Hearts and lungs are harvested and gently infused with ice cold krebs-henseleit buffer (Sigma 3753) until clear. Lungs are weighed and the right and left lung are separated. The right and left lung are immediately frozen in liquid nitrogen and placed into separate tubes. The entire heart is weighed. The atria are removed and the left ventricle (with septum) is separated from the right ventricle. The ventricles are weighed separately before being divided into two pieces. Ventricle pieces are frozen in liquid nitrogen and placed into separate tubes. Liquid nitrogen samples are stored in a freezer set to maintain approximately −80° C. until shipped on dry ice to the Sponsor for possible future analysis.
# The left tibia is removed and separated from the soft tissue. Longitudinal measurement will be obtained with a digital micrometer. The dissected tibia is disposed of with the rest of the carcass.
# [3] = tested on: isoproterenol-induced cardiac hypertrophy; assay: Isoproterenol induced cardiac hypertrophy mouse model; assay type: in vivo, 129S1/SvlmJ mice; settings: for HW/TL Ratio (mean): isoproterenol 10 mg/kg s.c. days 4-9, heart weight/tibia length on day 10
# Experimental: The compound of Example 2 is tested in a mouse model where the mice are treated with isoproterenol. Such a model can be useful for extrapolating to diseases or disorders involving an enlargement of the heart or cardiac tissue, e.g., congestive heart disease. Animals: 129S1/SvlmJ mice, 20-40 grams, Jackson Laboratories (Bar Harbor, Me.). Test Compound of Example 2: Test compound of Example 2 is supplied as a powder. The test article dosing solutions are prepared on the day of administration by dissolving the test compound in the vehicle (0.9% sodium chloride for injection, U.S.P.) at concentration of 2.0 mg/mL stock/dosing solution. The compound are agitated with a vortex mixer and sonicated to ensure the compound is in solution. The 2.0 mg/mL solution is diluted with vehicle to create the 0.2 mg/mL and the 0.6 mg/mL dosing solutions. Dosing solutions are stored in a refrigerator between the daily doses and are allowed to return to room temperature before the evening dose. Test Compound Isoproterenol: Test compound isoproterenol is supplied by Sigma (St. Louis, Mo.) as a powder. The test article dosing solutions are prepared on the day of administration by dissolving the test compound in the vehicle (0.9% sodium chloride for injection, U.S.P.) at concentration of 2.0 mg/mL. The compound is agitated with a vortex mixer and sonicated to ensure the compound is in solution. [table] Mice in group 1 and 2 are dosed daily via subcutaneous administration. On days 7, 10 and 14, 2 animals from groups 1 and 2 are weighed and then euthanized via CO2 asphyxiation. Hearts are harvested and gently infused with ice cold saline until clear. The entire heart is weighed. The atria are removed and the left ventricle (with septum) is separated from the right ventricle. The ventricles are weighed separately. The left tibia is removed and separated from the soft tissue. Longitudinal measurement are obtained with a digital micrometer. Mice in groups 3-6 are dosed once/day with isoproterenol subcutaneously from Days 4-9 and twice/day with vehicle or test compound via intraperitoneal administration from Days 1 to 9. On Day 10 (based on the results from Groups 1 and 2) animals from each group are weighed and then euthanized via CO2 asphyxiation. Hearts are harvested and gently infused with ice cold krebs-henseleit buffer (Sigma 3753) until clear. The entire heart is weighed. The atria are removed and the left ventricle (with septum) is separated from the right ventricle. The ventricles are weighed separately. The ventricles are stored in ice cold krebs-henseleit buffer for approximately 15 minutes and then transferred to 10% buffered formalin at room temperature until possible shipment for possible future analysis. The left tibia is removed and separated from the soft tissue. Longitudinal measurement is obtained with a digital micrometer.
smiles,measurement,setting,value
"CN1C(=O)c2c(nn(Cc3ccc(C(F)(F)F)cc3)c2Nc2ccccc2)N2C1=N[C@@H]1CCC[C@@H]12 [(6aR,9aS)-3-(phenylamino)-5,6a,7,8,9,9a-hexahydro-5-methyl-2-(4-(trifluoromethyl)-benzyl)-cyclopent[4,5]imidazo[1,2-a]pyrazolo[4,3-e]pyrimidin-4(2H)-one, reference compound]",Kp,[1],4.5 to 4.8
"CN1C(=O)c2c(nn(Cc3ccncc3)c2Nc2ccc(F)cc2)N2CC(C)(C)N=C12 [Example 1, 3-((4-fluorophenyl)amino)-5,7,7-trimethyl-2-(pyridin-4-ylmethyl)-7,8-dihydro-2H-imidazo[1,2-a]pyrazolo[4,3-e]pyrimidin-4(5H)-one]",Kp,[1],≤ 0.1
"CCCCc1nc(Cl)c(CO)n1Cc1ccc(-c2ccccc2-c2nn[nH]n2)cc1 [Losartan, Losartan potassium, reference compound]",Terminal LV + S/TL Ratio (mean) (TAC ratio),[2]; 40 mg/kg (as printed in the results table) oral once/day,6.2 mg/mm
same,difference in TAC ratio between the vehicle group and the treated group,[2]; vehicle vs Losartan group,not statistically significant
"Cc1ncc(Cn2nc3c(c2Nc2ccc(F)cc2)C(=O)N(C)C2=NC(C)(C)CN23)cn1 [Example 2, 3-((4-fluorophenyl)amino)-5,7,7-trimethyl-2-((2-methylpyrimidin-5-yl)methyl)-7,8-dihydro-2H-imidazo[1,2-a]pyrazolo[4,3-e]pyrimidin-4(5H)-one]",effect on cardiac hypertrophy induced by the TAC constriction,[2]; 3 mg/kg,tendency to reverse the cardiac hypertrophy
same,Terminal LV + S/TL Ratio (mean) (TAC ratio),[2]; 3 mg/kg oral twice/day,5.8 mg/mm
same,effect on cardiac hypertrophy induced by the TAC constriction,[2]; 10 mg/kg,tendency to reverse the cardiac hypertrophy
same,Terminal LV + S/TL Ratio (mean) (TAC ratio),[2]; 10 mg/kg oral twice/day,5.8 mg/mm
same,difference in TAC ratio between the sham group and the treated groups,[2]; sham vs compound groups,not statistically significant
same,reduction in the heart weight/tibia length (HW/TL) ratio compared to vehicle,[3]; 1 mg/kg,~8%
same,HW/TL Ratio (mean),[3]; 1 mg/kg twice/day days 1-9,8.49 mg/mm
same,decrease of (LV+RV)/TL ratio (left ventricle plus right ventricle weight/tibia length) compared to vehicle,[3]; 3 mg/kg,10%
same,prevention of cardiac hypertrophy,[3]; 3 mg/kg,significantly prevents cardiac hypertrophy
same,reduction in the heart weight/tibia length (HW/TL) ratio compared to vehicle,[3]; 3 mg/kg,~12.5%
same,HW/TL Ratio (mean),[3]; 3 mg/kg twice/day days 1-9,8.08 mg/mm
same,decrease of (LV+RV)/TL ratio (left ventricle plus right ventricle weight/tibia length) compared to vehicle,[3]; 10 mg/kg,10%
same,prevention of cardiac hypertrophy,[3]; 10 mg/kg,significantly prevents cardiac hypertrophy
same,reduction in the heart weight/tibia length (HW/TL) ratio compared to vehicle,[3]; 10 mg/kg,~12.5%
same,HW/TL Ratio (mean),[3]; 10 mg/kg twice/day days 1-9,8.1 mg/mm
same,effect on the development of isoproterenol-induced cardiac hypertrophy,[3]; up to 10 mg/kg,statistically significant effect
"CN1C(=O)c2c(nn(Cc3ccc(S(N)(=O)=O)cc3)c2Nc2ccc(F)cc2)N2CC(C)(C)N=C12 [Example 7, 4-((3-((4-fluorophenyl)amino)-5,7,7-trimethyl-4-oxo-4,5,7,8-tetrahydro-2H-imidazo[1,2-a]pyrazolo[4,3-e]pyrimidin-2-yl)methyl)benzenesulfonamide]",Kp,[1],< 0.05
